Laboratory results published in a melting point compilation (Tetko et al.; mined from patent text by program, amines drawn as free bases though some values may be those of a salt).

For CC(=O)C(Cc1cc(O)c(O)c([N+](=O)[O-])c1)C(C)=O, the melting point was 118 to 128 °C.
Compound COc1cccc(-c2n[nH]c(-c3ccccc3C)n2)c1 has a melting point of 100 to 102 °C.
Work on CCCCCCCCc1ccc(NC(=O)Nc2ccc(S(N)(=O)=O)cc2)cc1 yielded a melting point of 282 to 283 °C.
With CC(=O)NC[C@H]1CN(c2ccc(N3CCC(n4nnc(-c5ccccc5)n4)CC3)c(F)c2)C(=O)O1 the melting point was 212 to 214 °C.
Compound COc1ccc(Nc2nc(NC(=O)C(C)(C)C)nc3[nH]c4ccccc4c23)cc1 has a melting point of 219 to 220 °C.
O=[N+]([O-])c1cccc(-c2nc(Nc3cccc(Cl)c3)c3cc[nH]c3n2)c1 gave a melting point greater than 250 °C.
In the case of C=CC[C@H](NS(=O)(=O)c1ccc(OC)cc1)C(=O)OC(C)(C)C, the melting point is reported as 58 to 59 °C.
OCC[C@H]1[C@@H]2O[C@@H]2C(F)(F)[C@@H]1O gave a melting point of 59 to 59.5 °C.
Compound OCC1OC(n2c(Cl)nc3cc(Br)ccc32)C(O)C1O (centres undefined) has a melting point of 154 to 155 °C.
For CCOC(=O)c1nnc(-c2ccc(OCC)cc2)o1, the melting point was 93 °C.
For Nc1cc(-c2ccc(Cl)c(Cl)c2)[nH]n1, the melting point was 169 to 170 °C.
Compound Cc1coc2c1C(C)(O)C1=C(CCCC1C)C2=O (centres undefined) has a melting point of 139 to 141 °C.
Work on COCC12CCC(=O)CC1CCC1C3CCC(=O)C3(C)CCC12 (centres undefined) yielded a melting point of 94 to 96 °C.
O=C(O)CCCCCCCNS(=O)(=O)c1ccc(F)cc1 showed a melting point of 97 to 98 °C.
Compound CCCCN(Cc1ccc(-c2ccccc2S(=O)(=O)NC(=O)c2ccccc2Cl)cc1)C(=O)Oc1ccccc1C(F)(F)F has a melting point greater than 150 °C.
Compound CC(C(N)=S)(c1ccccc1)c1ccccn1 (centres undefined) has a melting point of 186 to 188 °C.
CC(C)(C#N)Cc1cccc(CC(C)(C)C#N)c1 showed a melting point of 58 to 63 °C.
CCOC(=O)C1C=Nc2c(ccc3ncccc23)N1O (centres undefined) showed a melting point of 223 to 225 °C.
In the case of CCOC(=O)c1cn(-c2ccc(F)cc2)c2cc(F)c(F)c(C)c2c1=O, the melting point is reported as 256 to 259 °C.
CC1CCN(Cc2ccc(C=CC(=O)Nc3ccc(-c4ccc(Cl)cc4)cc3)cc2)CC1 showed a melting point of 207 to 208 °C.
CCOC(=O)c1cc(O)cc(OCC)c1 showed a melting point of 62 to 63 °C.
For CC(C)N1C(=O)C(N=[N+]=[N-])N=C(c2ccccc2)c2ccccc21 (centres undefined), the melting point was 178 to 179 °C.
Cc1cn2c(=O)c3cc(S(=O)(=O)Cl)ccc3nc2s1 gave a melting point of 206 to 209 °C.
Work on CC(C)(C)OC(=O)NCCNC(=O)c1nc(Cl)sc1Br yielded a melting point of 142 to 144 °C.
In the case of COCCOC(=O)C(=O)Nc1nc(-c2ccccc2)cs1, the melting point is reported as 118 to 120 °C.
With C=CCn1cc(-c2ccccc2)c(=O)c(-c2ccccc2)c1 the melting point was 174 °C.
Work on O=C1NC(=O)c2ccc(N3CCCCC3)cc2/C1=C/Nc1ccc(CN2CCCCC2)cc1 yielded a melting point of 211 to 212 °C.
CCCCn1c(=O)n(CCC)c(=O)c2c3n(nc21)CCCN3C showed a melting point of 94 to 98 °C.
Compound CN(c1ccc([N+](=O)[O-])cc1C(F)(F)F)c1c(Cl)c(Cl)nc(Cl)c1Cl has a melting point of 152 to 155 °C.
NS(=O)(=O)c1cc(C(=O)O)cc(SCC(Br)CBr)c1Cc1ccccc1 (centres undefined) showed a melting point of 205 to 207 °C.
Work on Fc1ccc(-c2nc(Cl)nc3c2CCC3)cc1 yielded a melting point of 106 to 107 °C.
With NS(=O)(=O)c1cc(C(=O)O)cc(NC/C=C/CBr)c1Oc1ccccc1 the melting point was 191 to 194 °C.
N#CCc1ccc(NC(=O)C=C2CC(C(=O)O)Nc3cc(Cl)cc(Cl)c32)cc1 (racemic) showed a melting point of 200 to 202 °C.
For CCOc1nn(-c2ccc(C(F)(F)F)cn2)cc1CCOc1ccc(CCC(=O)O)c(OC)c1, the melting point was 147 to 148 °C.
Work on CC1(C)CCC(Cc2ccc(Cl)cc2)=CC1=O yielded a melting point of 87 to 90 °C.
In the case of Cc1c(NC(=O)c2ccc(-c3ccc(F)cc3F)cc2F)ccc2cc(CN3CCCC3)cnc12, the melting point is reported as 172 to 173 °C.
Fc1cccc(-c2nc(-c3ccccn3)no2)c1 gave a melting point of 88 to 98 °C.
For Cc1cccc(C=CC=C2SC(=S)N(CC(=O)O)C2=O)c1, the melting point was 220 to 226 °C.
For CC(=O)CCCN1C(=O)c2ccccc2S1(=O)=O, the melting point was 90 to 93 °C.
In the case of CN1CCCC1=C(C#N)c1ccc(Cl)cc1, the melting point is reported as 71 to 72 °C.
Oc1cc2c(cc1CCCCc1ccccc1)OC(CCc1ccccc1)C2 (centres undefined) showed a melting point of 50 to 53 °C.
CCOc1cc(I)cc(OCC)c1OCC gave a melting point of 44 to 46 °C.
Work on CC(C)Oc1cc(CCCO)n(Cc2ccc(Cl)cc2Cl)n1 yielded a melting point of 51 to 52 °C.
In the case of COC(=O)CNC(=O)c1ncccc1O, the melting point is reported as 59 to 61 °C.
CS(=O)(=O)c1cc(N)ccc1OC(F)(F)F showed a melting point of 106 to 109 °C.
Work on Cc1cn(C2CC(ON)C(CO)O2)c(=O)[nH]c1=O (centres undefined) yielded a melting point of 81 °C.
Compound CC(=O)N1CCC(C2=C(C#N)C(c3cccc(C#N)c3Br)c3c[nH]nc3N2)CC1 (centres undefined) has a melting point greater than 280 °C.
Compound O=CN(Cc1cccs1)C1(c2ccc(Cl)cc2)CCC1 has a melting point of 114 to 119 °C.
For Cc1cccc(C=CCC(CCC(=O)O)(C(=O)C=Cc2ccc(Cl)cc2)c2ccccc2)c1 (centres undefined), the melting point was 135 to 144 °C.
Work on CS(=O)c1ccc(C(CC2CCCC2)C(=O)Nc2nccs2)cc1 (centres undefined) yielded a melting point of 170 to 173 °C.
CCc1c(Cc2[nH]c(Cc3[nH]c(C=O)c(C)c3CC)c(CC)c2CC)[nH]c(C=O)c1C showed a melting point of 202 to 203 °C.
Work on COCc1cccc(C(=O)c2nc(OC)cc(OC)n2)c1N yielded a melting point of 100 to 101 °C.
For CC(=O)O[C@H]1CS[C@H](COC(=O)c2ccccc2)O1 (relative stereo), the melting point was 67 to 68 °C.
With CCCCCCCCCCCCCCCCCNC(=O)OCC(CO)Oc1ccon1 (centres undefined) the melting point was 71 to 72 °C.
Compound CCC(C)(C)c1cc(-c2ccc(C=C3SC(N4CCOCC4)=NC3=O)s2)ccc1O has a melting point of 322 to 323 °C.
Compound N#Cc1ccc(C(=O)CC2C=COc3ccccc32)cc1 (centres undefined) has a melting point of 111 °C.
In the case of COC(=O)CNc1ccc2c(c1)OCO2, the melting point is reported as 105 to 106 °C.
CCn1nc(C(F)(F)F)c(C)c1O gave a melting point of 150 to 152 °C.
Cc1scnc1-c1ccc(-c2cc(C(F)(F)F)nn2-c2ccc(S(C)(=O)=O)c(F)c2)cc1 gave a melting point of 170 to 172 °C.
With COC(=O)C(NC(=O)OC(C)(C)C)c1ccc(OS(=O)(=O)C(F)(F)F)cc1 (centres undefined) the melting point was 67 to 67.6 °C.
In the case of NC(=O)[C@H](Cc1ccccc1)N1C(=O)c2ccccc2C1=O, the melting point is reported as 211 to 215 °C.
Work on CCOC(=O)c1c(CN2CCCCC2)nc2cc(OC)c(OC)cc2c1-c1ccc(OC)c(OC)c1 yielded a melting point of 148 to 149 °C.
Compound NC(=O)C1(O)c2ccccc2S(=O)(=O)N1Cc1ccc(Br)cc1F (centres undefined) has a melting point of 182 to 184 °C.
In the case of CCn1c(CCCO)nc(C(C)C)c1Sc1cc(Cl)cc(Cl)c1, the melting point is reported as 73 °C.
For COC(=O)Cc1cccc(C(=O)c2ccccc2)c1N, the melting point was 52 to 54 °C.
Compound CC(C)c1c(Cl)sc2[nH]c(=O)c(=O)[nH]c12 has a melting point greater than 250 °C.
With O=S(=O)(Cl)c1ccccc1Cn1cncn1 the melting point was 180 to 195 °C.
For O=C(NCCCCN1CCCC1)Nc1snc(OCc2c(F)cc(Br)cc2F)c1C(=O)O, the melting point was 208 °C.
CCN(CC)CCNc1cc(Sc2ccc(Cl)cc2)nc(-c2ccccc2)n1 showed a melting point of 83.5 to 86 °C.
With COc1cc(C)c(C(=O)c2c(Cl)nc(Cl)c(C(C)=O)c2C(F)(F)F)c(OC)c1OC the melting point was 109 to 112 °C.
Compound CCOC(=O)c1cc(-n2c(OC)nc(C(F)(F)F)cc2=O)c(F)cc1Cl has a melting point of 91 to 93 °C.
COc1cc(COC(=O)NCCN2CCOCC2)ccc1OC(C)=O gave a melting point of 82 to 83 °C.
In the case of COc1cccc([C@H]2O[C@H](CC(=O)Nc3cccc(CCC(=O)O)c3)C(=O)N(CC(C)(C)C)c3ccc(Cl)cc32)c1OC, the melting point is reported as 172 to 173 °C.
In the case of Cc1ccc(-n2c(-c3c4ccccc4cc4ccccc34)ccc2-c2c3ccccc3cc3ccccc23)cc1, the melting point is reported as 262 to 263 °C.
With CC(=O)C(=Cc1cccc([N+](=O)[O-])c1)C(=O)CCCCCCCCCCBr the melting point was 64 to 67 °C.
O=C(CCc1ccc(NC(=O)c2ccccc2)cc1)NO gave a melting point of 189 to 191 °C.
COc1ccc2[nH]c3c(c2c1)CCS(=O)(=O)CCC3 showed a melting point of 231 to 233 °C.
In the case of COc1cccc(F)c1COC1(C(F)(F)F)CN(C)C(=O)Nc2ccc(Cl)cc21 (centres undefined), the melting point is reported as 172 to 174 °C.
For O=C1c2ccccc2C(O)N1CCCOc1ccncc1 (centres undefined), the melting point was 124 to 125 °C.
For c1ccc(C(OC2CCN(CCCNc3ccc4nncn4n3)CC2)c2ccccc2)cc1, the melting point was 167 to 168 °C.
Compound CCOCc1nc2c(N)nc3ccccc3c2n1CC(C)(C)O has a melting point of 190 to 193 °C.
Work on CCOC(=O)C1=Cc2cc(C(C)=O)ccc2OC1C(F)(F)F (centres undefined) yielded a melting point of 101 to 103 °C.
O=Cc1cc2ccccc2nc1N1CCN(CC2CCCCC2)CC1 showed a melting point of 54 to 55 °C.
In the case of O=C(c1ccccc1)c1[nH]c2cc(Cl)ccc2c1NC(=O)N1CCOCC1, the melting point is reported as 168 to 170 °C.
For CC1(C)CON(Cc2ccc(NC(=O)C3CC3)cc2Cl)C1=O, the melting point was 191 to 193 °C.
Cc1cc(Oc2cccc([N+](=O)[O-])c2N(C)C(=O)OC(C)(C)C)cc(C)c1NC(=O)OC(C)(C)C gave a melting point of 154 to 156 °C.
In the case of COc1ccc2c(=O)sc(C(=O)O)cc2c1, the melting point is reported as 278 to 279 °C.
For O=C1Nc2ccccc2C1CCCCN1CCN(c2cccc(Cl)c2)CC1 (centres undefined), the melting point was 112 to 114 °C.
Compound CN(c1ccncc1)N1CCc2cc(O)ccc2C1 has a melting point of 263 to 266 °C.
For Cc1nc(C)c(-c2cncc(OC3SCC(O)C(O)C3O)c2)s1 (centres undefined), the melting point was 150 °C.
Compound CC(=O)n1c(Br)cc(-c2ccc(F)cc2)c1-c1ccc(S(C)(=O)=O)cc1 has a melting point of 121 to 125 °C.
For COc1c(OC)c(OC(C)=O)c2ccc(Cl)cc2c1O, the melting point was 155 to 156 °C.
For CC(C)(C)c1ccc2ncc(C(=O)NCc3ccc(Cl)cc3)c(O)c2c1, the melting point was 266 °C.
Cc1nc(-c2ccc(OCCCn3ccnc3)cc2)no1 gave a melting point of 110 to 112 °C.
With Cc1cc(C2CC(C)(C)NC(C)(C)C2)cc(C)c1O the melting point was 152 to 154 °C.
CC(C)(C)c1cc(Cl)cc(CO[C@H]2CCCN(Cc3nc(=O)[nH][nH]3)[C@H]2c2ccccc2)c1 showed a melting point of 181 to 182 °C.
For COc1ccc(-n2nc(CCC#N)cc2-c2ccc(Cl)cc2)cc1, the melting point was 107 to 109 °C.
With O=C1N(N2CCOCC2)c2ccccc2C1(Cc1ccnc(F)c1)Cc1ccnc(F)c1 the melting point was 198 to 203 °C.
O=C(CSc1ccccc1)C1CCCCN1 (centres undefined) showed a melting point of 68.5 to 69.5 °C.
With O=C(Nc1cc(F)cc(F)c1)c1ccccn1 the melting point was 111 to 113 °C.
For N#Cc1nn(-c2c(Cl)cc(C(F)(F)F)cc2Cl)cc1I, the melting point was 83 to 84 °C.
CC(=O)Nc1c(C(=O)c2ccc(Cl)cc2)[nH]c2cc(Cl)ccc12 gave a melting point of 175 to 176 °C.
With COc1ccc(-c2[nH]c3cn[nH]c(=O)c3c2Cl)cc1OC1CC1 the melting point was 293 to 294 °C.
Compound O=C1CCS(=O)(=O)C1=NO has a melting point of 148 °C.
